Reference: patent publication US20240190886A1, “BRM Targeting Compounds and Associated Methods of Use” (Prelude Therapeutics Incorporated, priority 2022, published 2024)

What was measured:
SMARCA2 = molecular target: T1, SMARCA2 (Homo sapiens, UniProt P51531); assay: SMARCA2 HiBiT degradation assay in HeLa cells; format: cell-based; conditions: 18 hours incubation, Nano-Glo HiBiT Lytic detection
T1 construct: SMARCA2-HiBiT knock-in Hela monoclonal cell (CS302366) and SMARCA4-HiBiT knock-in Hela monoclonal cell (CS3023226) were purchased from Promega; host or cells: HeLa SMARCA2-HiBiT knock-in monoclonal cells (heterozygous knock-in)
Experimental: (§1) Example A. SMARCA2 HiBiT and SMARCA4 HiBiT Degradation Assay
(§2) HiBiT peptide knock-in of SMARCA2 in LgBiT expressing HEK293T cells was performed by CRISPR-mediated tagging system as described Promega. The homozygous HiBiT knock-in on c-terminus SMARCA2 was confirmed by sanger sequence. SMARCA2-HiBiT knock-in Hela monoclonal cell (CS302366) and SMARCA4-HiBiT knock-in Hela monoclonal cell (CS3023226) were purchased from Promega. The heterozygous HiBiT-knock-in was confirmed by sanger sequence in both SMARCA2-HiBiT and SMARCA4-HiBiT monoclonal cells.
(§3) SMARCA2 HiBiT and SMARCA4 HiBiT degradation assay in HeLa cells
(§4) Dispense 10 ul aliquot of prepared Hela-SMARCA2-HiBiT or Hela-SMARCA4-HiBiT cells (1:1 ratio of cells:Trypan Blue (#1450013, Bio-Rad)) onto cell counting slide (#145-0011, Bio-Rad) and obtain cell density and cell viability using cell counter (TC20, Bio-Rad). Remove appropriate volume of resuspended cells from culture flask to accommodate 2500 cells/well @20 μL/well. Transfer Hela-HiBiT cells to 50 mL conical (#430290, Corning). Spin down at 1000 rpm for 5 min using tabletop centrifuge (SPINCHRON 15, Beckman). Discard supernatant and resuspend cell pellet in modified EMEM (#30-2003, ATCC) cell culture media containing 10% FBS (F2422-500ML, Sigma), and 1X Penicillin/Streptomycin (200 g/L) (30-002-CI, Corning) to a cell density of 125,000 cells/mL. Dispense 20 μLof resuspended Hela-HiBit cells per well in 384-well TC treated plate (#12-565-343, Thermo Scientific) using standard cassette (#50950372, Thermo Scientific) on Multidrop Combi (#5840310, Thermo Scientific) inside laminar flow cabinet.
(§5) Compounds were dissolved in DMSO to make 10 mM stock and 3-fold series dilutions were further conducted keeping the highest concentration 10 RM. Dispense test compounds onto plates using digital liquid dispenser (D300E, Tecan). Incubate plates in humidified tissue culture incubator @37° C. for 18 hours. Add 20 μL of prepared Nano-Glo® HiBiT Lytic detection buffer (N3050, Promega) to each well of 384-well plate using small tube cassette (#24073295, Thermo Scientific) on Multidrop Combi, incubate @ RT for 30-60 min. Read plates on microplate reader (Envision 2105, PerkinElmer) using 384 well Ultra-Sensitive luminescence mode. Raw data files and compound information reports are swept into centralized data lake and deconvoluted using automated scripts designed by TetraScience, Inc. Data analysis, curve-fitting and reporting done in Dotmatics Informatics Suite using Screening Ultra module.
(§6) In Table 1, A=DC50<0.1 RM; B=0.1 μM≤DC50<1 μM and C=DC50>1 μM. In Table 4, A=Dmax>75% and B=50%<Dmax<75% and C=Dmax<50%.

SMARCA4 = molecular target: T2, SMARCA4 (Homo sapiens, UniProt P51532); assay: SMARCA4 HiBiT degradation assay in HeLa cells; format: cell-based; conditions: 18 hours incubation, Nano-Glo HiBiT Lytic detection
T2 construct: SMARCA2-HiBiT knock-in Hela monoclonal cell (CS302366) and SMARCA4-HiBiT knock-in Hela monoclonal cell (CS3023226) were purchased from Promega; host or cells: HeLa SMARCA4-HiBiT knock-in monoclonal cells (heterozygous knock-in)
Experimental: as §1, §2, §3, §4, §5, §6

[1] = test system: SMARCA4 mutated cancer cells; conditions: SMARCA 2/4 bromodomain inhibitors; literature statement; cited from earlier work

T2 sequence (P51532 whole entry): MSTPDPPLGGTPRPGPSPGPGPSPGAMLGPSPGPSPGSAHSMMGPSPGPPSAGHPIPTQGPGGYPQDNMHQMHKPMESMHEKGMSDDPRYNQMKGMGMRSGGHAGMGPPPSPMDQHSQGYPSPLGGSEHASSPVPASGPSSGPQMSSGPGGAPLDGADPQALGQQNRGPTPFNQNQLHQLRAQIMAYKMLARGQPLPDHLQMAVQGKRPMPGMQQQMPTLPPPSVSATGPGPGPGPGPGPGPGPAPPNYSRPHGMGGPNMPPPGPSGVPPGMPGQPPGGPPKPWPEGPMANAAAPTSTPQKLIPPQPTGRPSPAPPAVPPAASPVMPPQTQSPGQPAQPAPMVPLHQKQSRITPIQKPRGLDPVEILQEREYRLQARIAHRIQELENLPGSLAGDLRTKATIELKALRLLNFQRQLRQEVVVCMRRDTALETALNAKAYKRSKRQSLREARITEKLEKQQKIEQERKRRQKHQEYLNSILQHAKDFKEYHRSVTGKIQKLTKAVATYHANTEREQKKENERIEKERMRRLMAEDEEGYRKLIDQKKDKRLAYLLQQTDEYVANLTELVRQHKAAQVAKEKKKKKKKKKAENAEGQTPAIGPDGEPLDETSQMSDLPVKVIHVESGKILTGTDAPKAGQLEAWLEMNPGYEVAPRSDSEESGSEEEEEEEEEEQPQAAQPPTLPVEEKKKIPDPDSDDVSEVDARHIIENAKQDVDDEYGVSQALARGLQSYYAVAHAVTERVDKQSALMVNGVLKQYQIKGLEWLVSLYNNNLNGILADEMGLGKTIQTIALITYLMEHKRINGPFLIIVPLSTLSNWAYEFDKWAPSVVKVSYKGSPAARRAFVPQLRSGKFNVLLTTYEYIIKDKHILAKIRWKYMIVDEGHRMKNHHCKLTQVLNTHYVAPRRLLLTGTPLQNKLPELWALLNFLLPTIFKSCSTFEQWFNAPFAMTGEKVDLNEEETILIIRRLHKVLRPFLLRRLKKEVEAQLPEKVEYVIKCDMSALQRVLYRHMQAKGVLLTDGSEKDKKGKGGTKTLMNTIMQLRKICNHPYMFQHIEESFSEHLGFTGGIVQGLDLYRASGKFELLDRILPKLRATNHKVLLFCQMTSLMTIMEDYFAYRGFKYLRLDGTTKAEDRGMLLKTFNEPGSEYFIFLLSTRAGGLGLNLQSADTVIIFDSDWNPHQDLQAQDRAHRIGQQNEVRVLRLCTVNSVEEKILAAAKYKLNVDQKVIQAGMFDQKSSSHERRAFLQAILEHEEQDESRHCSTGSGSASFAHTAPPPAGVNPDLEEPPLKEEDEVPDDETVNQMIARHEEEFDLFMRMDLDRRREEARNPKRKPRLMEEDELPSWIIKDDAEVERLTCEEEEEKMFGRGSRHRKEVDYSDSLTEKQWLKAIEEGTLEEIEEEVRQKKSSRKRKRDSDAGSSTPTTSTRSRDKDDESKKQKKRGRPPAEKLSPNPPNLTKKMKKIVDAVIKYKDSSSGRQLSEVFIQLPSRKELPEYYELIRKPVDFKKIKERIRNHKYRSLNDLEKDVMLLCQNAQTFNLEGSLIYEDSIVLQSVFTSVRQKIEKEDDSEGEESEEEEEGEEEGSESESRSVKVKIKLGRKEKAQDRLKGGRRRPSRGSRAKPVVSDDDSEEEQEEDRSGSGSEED
T1 sequence (P51531 whole entry): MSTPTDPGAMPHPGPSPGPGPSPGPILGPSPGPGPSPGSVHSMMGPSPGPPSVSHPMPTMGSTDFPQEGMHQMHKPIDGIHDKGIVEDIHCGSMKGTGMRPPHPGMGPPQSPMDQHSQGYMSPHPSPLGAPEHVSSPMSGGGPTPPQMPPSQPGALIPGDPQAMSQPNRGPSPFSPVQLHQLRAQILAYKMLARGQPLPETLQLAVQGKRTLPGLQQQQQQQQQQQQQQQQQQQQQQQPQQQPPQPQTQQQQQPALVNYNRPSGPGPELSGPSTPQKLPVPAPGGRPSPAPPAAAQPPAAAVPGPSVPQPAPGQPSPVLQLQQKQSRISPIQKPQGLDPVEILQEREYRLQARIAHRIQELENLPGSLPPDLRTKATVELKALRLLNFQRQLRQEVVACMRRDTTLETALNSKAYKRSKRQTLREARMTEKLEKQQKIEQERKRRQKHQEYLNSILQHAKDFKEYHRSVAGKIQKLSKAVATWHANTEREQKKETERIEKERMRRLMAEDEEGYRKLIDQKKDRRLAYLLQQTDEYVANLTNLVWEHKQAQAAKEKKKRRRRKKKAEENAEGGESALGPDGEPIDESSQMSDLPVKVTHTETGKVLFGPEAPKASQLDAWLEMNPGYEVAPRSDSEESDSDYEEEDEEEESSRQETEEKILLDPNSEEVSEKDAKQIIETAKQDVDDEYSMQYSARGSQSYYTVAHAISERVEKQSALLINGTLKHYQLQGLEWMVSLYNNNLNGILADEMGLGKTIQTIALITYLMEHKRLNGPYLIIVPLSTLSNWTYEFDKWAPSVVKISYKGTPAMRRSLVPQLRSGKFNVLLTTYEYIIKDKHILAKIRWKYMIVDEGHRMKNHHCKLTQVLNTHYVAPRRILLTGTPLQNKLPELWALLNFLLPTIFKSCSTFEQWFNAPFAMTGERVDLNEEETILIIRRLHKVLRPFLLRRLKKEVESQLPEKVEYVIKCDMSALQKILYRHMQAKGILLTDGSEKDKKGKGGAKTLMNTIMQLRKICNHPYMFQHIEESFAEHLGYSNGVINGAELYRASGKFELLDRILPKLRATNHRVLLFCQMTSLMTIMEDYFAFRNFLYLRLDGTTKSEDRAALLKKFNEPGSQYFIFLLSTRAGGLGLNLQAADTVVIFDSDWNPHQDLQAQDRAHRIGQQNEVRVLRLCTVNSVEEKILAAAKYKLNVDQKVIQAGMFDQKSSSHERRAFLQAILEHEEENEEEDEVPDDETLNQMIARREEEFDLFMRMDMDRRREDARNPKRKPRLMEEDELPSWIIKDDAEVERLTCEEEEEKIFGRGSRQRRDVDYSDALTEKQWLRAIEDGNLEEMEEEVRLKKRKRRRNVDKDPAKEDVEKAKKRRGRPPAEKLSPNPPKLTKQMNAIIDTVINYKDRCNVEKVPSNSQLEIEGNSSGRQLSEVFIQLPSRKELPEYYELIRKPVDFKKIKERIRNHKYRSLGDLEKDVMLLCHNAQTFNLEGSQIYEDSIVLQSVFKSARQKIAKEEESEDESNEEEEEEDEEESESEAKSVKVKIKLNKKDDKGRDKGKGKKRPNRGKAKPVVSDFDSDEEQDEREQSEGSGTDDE

DC50 (SMARCA2)	Dmax (SMARCA2)	DC50 (SMARCA4)	Dmax (SMARCA4)	Structure (SMILES)	effects on cell proliferation inhibition [1]
< 100 nM	> 75%	< 100 nM	> 75%	CC[C@]12CNc3nnc(-c4ccccc4O)cc3N1C[C@H](Oc1ccc(CN3CCN(c4ccc(C5CCC(=O)NC5=O)cc4)CC3)cn1)C2 (stereo partly drawn) [Example 14, 3-(4-(4-((6-(((6aS,8R)-6a-ethyl-2-(2-hydroxyphenyl)-5,6,6a,7,8,9-hexahydro-pyrrolo[1′,2′:4,5]pyrazino[2,3-c]pyridazin-8-yl)oxy)pyridin-3-yl)methyl)piperazin-1-yl)phenyl)piperidine-2,6-dione]	–
< 100 nM	50 to 75%	< 100 nM	> 75%	O=C1CCC(c2ccc(C3CCN(Cc4ccc(O[C@H]5CN6c7cc(-c8ccccc8O)nnc7NC[C@@]6(C(F)F)C5)nc4)CC3)cc2)C(=O)N1 (stereo partly drawn) [Example 15, 3-(4-(1-((6-(((6aR,8R)-6a-(difluoromethyl)-2-(2-hydroxyphenyl)-5,6,6a,7,8,9-hexahydropyrrolo[1′,2′:4,5]pyrazino[2,3-c]pyridazin-8-yl)oxy)pyridin-3-yl)methyl)piperidin-4-yl)phenyl)piperidine-2,6-dione]	–
< 100 nM	> 75%	< 100 nM	> 75%	CC[C@@]12CNc3nnc(-c4ccccc4O)cc3N1C[C@H](Oc1ccc(CN3CCC(c4ccc(C5CCC(=O)NC5=O)cc4)CC3)cn1)C2 (stereo partly drawn) [Example 16, 3-(4-(1-((6-(((6aR,8R)-6a-ethyl-2-(2-hydroxyphenyl)-5,6,6a,7,8,9-hexahydro-pyrrolo[1′,2′:4,5]pyrazino[2,3-c]pyridazin-8-yl)oxy)pyridin-3-yl)methyl)piperidin-4-yl)phenyl)piperidine-2,6-dione]	–
–	–	–	–	O=C(/C=C/N1C[C@H]2C[C@@H]1CN2c1ccccn1)c1ccccc1O [PFI-3]	none to minor effects
